According to US7825278B2, “Substituted enaminones, their derivatives and uses thereof” (The Regents of the University of California, priority 2004, dated 2010):

Target: GABAA receptor complex (GRC)
Experiment: [35S]TBPS binding assay (In Vitro Binding Assay 1)
Conditions: rat cortex P2 homogenate; 2 nM [35S]TBPS; 90 min at 25° C.
Procedure: [^35S]TBPS binding assay. The cortex from male Sprague-Dawley rats (weighing 160-200 g) was removed immediately after decapitation and dissected over ice. A P2 homogenate was prepared for binding assay as previously described (Gee, Mol. Pharmacol. 30: 218-225, 1986.). The tissue was homogenized in 0.32 M sucrose (J. T. Baker Chemical Co., Phillipsburg, N.J., USA) with a Teflon-coated pestle, followed by centrifugation at 1,000×g for 10 min. The supernatant was collected and centrifuged at 9,000×g for 20 min. The resultant P2 pellet was resuspended in ice-cold 50 mM sodium potassium phosphate (J. T. Baker) buffer (pH 7.4) containing 200 mM NaCl (J. T. Baker) and used immediately in binding assays. A 2 nM concentration of [^35S]TBPS (86 Ci/mmol; New England Nuclear, Boston, Mass., USA) was incubated with 100 μl of tissue homogenate (10% w/v) in the presence or absence of 5 μM GABA (Sigma Chem. Co., St. Louis, Mo.) and 5 μl aliquots of test drug dissolved in dimethyl sulfoxide (Sigma Chem. Co.) (≦10 μl of solvent used in all assays). At the concentration (≦1%) used, dimethyl sulfoxide had no effect on specific [^35S]TBPS binding. All assays were brought to a final volume of 1 ml with 50 mM sodium potassium phosphate buffer (pH 7.4) containing 200 mM NaCl. Non-specific binding was defined as binding in the presence of 2 μM TBPS (NEN, Boston, Mass.) and accounted for ˜30% of the total binding. Assays were terminated after a 90-min steady-state incubation at 25° C. by rapid filtration through glass fiber filters (no. 32; Schleicher & Schuell, Keene, N.H.). Filter-bound radioactivity was quantified by liquid scintillation spectrophotometry. The data were evaluated by nonlinear regression (GraphPad, Inc., San Diego, Calif.) to obtain IC50 (concentration at which half-maximal inhibition of radioligand occurs) values.

| SMILES | IC50 [nM] | Imax (inhibition of [^35S]TBPS binding) [%] |
| --- | --- | --- |
| CCCNC(=O)C(=CNc1ccc(C)cc1)C(=O)c1ccccc1C [2-methyl-α-[[(4-methylphenyl)amino]methylene]-β-oxo-N-propyl-benzenepropanamide] | 100 | 100 |
| CCOC(=O)C(=CNc1ccccc1Cl)C(=O)c1ccccc1Cl [ethyl 2-chloro-α-[[(2-chlorophenyl)-amino]methylene]-β-oxobenzenepropionate] | 420 | 100 |
| CCOC(=O)C(=CNc1ccc(I)cc1)C(=O)c1ccccc1Cl [ethyl 2-chloro-α-[[(4-iodophenyl)-amino]methylene]-β-oxobenzenepropionate] | 20 | 86 |
| CCOC(=O)C(=CNc1ccc(F)cc1)C(=O)c1cccc2ccccc12 [ethyl α-[(4-fluorophenyl)amino]methylene]-β-oxo-1-naphthalenepropionate] | 200 | 81 |
| C#Cc1ccc(NC=C(C(=O)NCCC)C(=O)c2ccccc2C)cc1 [α-[[(4-ethynylphenyl)amino]methylene]-2-methyl-β-oxo-N-propyl-benzenepropanamide] | 20 | 95 |

More lines, now with the values ahead:

| IC50 [nM] | Imax (inhibition of [^35S]TBPS binding) [%] | SMILES |
| --- | --- | --- |
| 60 | 100 | CCOC(=O)C(=CNc1ccc(C#N)cc1)C(=O)c1ccccc1Cl [ethyl 2-chloro-α-[[(4-cyanophenyl)-amino]methylene]-β-oxobenzenepropionate] |
| 10 | 95 | C#Cc1ccc(NC=C(C(=O)OCC)C(=O)c2ccccc2Cl)cc1 [ethyl 2-chloro-α-[[(4-ethynylphenyl)-amino]methylene]-β-oxobenzenepropionate] |
